This is an account of results in ChEMBL document CHEMBL5291721, “A preclinical secondary pharmacology resource illuminates target-adverse drug reaction associations of marketed drugs” (Nat Commun, 2023).

Assay [1] has as its target Sodium-dependent noradrenaline transporter (Homo sapiens, UniProt P23975).
The next assay deals with Acetylcholinesterase (Homo sapiens, UniProt P22303). It counts as functional.
For assay [2], the target named is T1, Alpha-2A adrenergic receptor (Homo sapiens, UniProt P08913).
T1 sequence (P08913 whole entry): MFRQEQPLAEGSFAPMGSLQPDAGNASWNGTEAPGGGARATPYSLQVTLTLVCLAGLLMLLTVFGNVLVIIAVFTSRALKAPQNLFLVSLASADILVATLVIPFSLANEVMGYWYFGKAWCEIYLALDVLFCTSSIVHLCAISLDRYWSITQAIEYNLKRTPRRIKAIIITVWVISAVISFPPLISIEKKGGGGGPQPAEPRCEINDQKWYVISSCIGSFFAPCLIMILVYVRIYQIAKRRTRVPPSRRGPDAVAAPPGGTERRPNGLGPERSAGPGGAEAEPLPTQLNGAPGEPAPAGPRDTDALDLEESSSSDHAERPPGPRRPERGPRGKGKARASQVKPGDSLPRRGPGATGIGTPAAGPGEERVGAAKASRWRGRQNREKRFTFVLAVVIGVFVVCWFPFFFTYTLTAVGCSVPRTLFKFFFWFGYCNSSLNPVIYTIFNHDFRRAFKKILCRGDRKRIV

Assay [3] addresses Sodium-dependent dopamine transporter (Homo sapiens, UniProt Q01959).
Assay [4] deals with Prostaglandin G/H synthase 1 (Homo sapiens, UniProt P23219). It counts as functional.
Sequence of Prostaglandin G/H synthase 1 (P23219 whole entry): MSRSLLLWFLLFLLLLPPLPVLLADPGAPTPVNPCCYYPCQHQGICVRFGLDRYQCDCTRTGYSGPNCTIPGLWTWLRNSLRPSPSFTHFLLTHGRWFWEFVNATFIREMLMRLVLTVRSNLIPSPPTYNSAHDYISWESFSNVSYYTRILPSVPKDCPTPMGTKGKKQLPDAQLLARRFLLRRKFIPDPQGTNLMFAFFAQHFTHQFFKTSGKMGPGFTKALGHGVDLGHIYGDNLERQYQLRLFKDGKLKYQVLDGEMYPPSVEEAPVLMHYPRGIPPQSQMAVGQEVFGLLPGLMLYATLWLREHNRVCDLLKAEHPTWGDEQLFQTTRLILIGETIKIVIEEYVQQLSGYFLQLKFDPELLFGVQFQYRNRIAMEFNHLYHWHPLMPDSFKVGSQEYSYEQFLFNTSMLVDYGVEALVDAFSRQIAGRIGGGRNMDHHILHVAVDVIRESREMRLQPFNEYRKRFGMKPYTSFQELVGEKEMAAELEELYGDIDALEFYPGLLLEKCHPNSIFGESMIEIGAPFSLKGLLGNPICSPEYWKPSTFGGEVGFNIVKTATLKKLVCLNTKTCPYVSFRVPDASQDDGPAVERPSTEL
The target of a further assay is T2, Thromboxane A2 receptor (Homo sapiens, UniProt P21731).
T2 sequence (P21731 whole entry): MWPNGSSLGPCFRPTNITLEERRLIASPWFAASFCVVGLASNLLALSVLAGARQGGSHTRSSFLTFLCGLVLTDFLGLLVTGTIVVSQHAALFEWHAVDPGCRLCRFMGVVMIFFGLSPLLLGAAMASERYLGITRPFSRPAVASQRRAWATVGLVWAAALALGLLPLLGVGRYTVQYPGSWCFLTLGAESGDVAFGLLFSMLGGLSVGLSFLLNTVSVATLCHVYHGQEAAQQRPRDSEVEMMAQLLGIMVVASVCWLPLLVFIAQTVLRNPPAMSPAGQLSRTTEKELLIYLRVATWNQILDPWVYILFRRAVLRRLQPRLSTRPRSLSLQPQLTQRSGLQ
The format is functional, cell-based.

Assay [5] concerns the target Sodium-dependent serotonin transporter (Homo sapiens, UniProt P31645).
A further assay addresses T3, Progesterone receptor (Homo sapiens, UniProt P06401).
T3 sequence (P06401 whole entry): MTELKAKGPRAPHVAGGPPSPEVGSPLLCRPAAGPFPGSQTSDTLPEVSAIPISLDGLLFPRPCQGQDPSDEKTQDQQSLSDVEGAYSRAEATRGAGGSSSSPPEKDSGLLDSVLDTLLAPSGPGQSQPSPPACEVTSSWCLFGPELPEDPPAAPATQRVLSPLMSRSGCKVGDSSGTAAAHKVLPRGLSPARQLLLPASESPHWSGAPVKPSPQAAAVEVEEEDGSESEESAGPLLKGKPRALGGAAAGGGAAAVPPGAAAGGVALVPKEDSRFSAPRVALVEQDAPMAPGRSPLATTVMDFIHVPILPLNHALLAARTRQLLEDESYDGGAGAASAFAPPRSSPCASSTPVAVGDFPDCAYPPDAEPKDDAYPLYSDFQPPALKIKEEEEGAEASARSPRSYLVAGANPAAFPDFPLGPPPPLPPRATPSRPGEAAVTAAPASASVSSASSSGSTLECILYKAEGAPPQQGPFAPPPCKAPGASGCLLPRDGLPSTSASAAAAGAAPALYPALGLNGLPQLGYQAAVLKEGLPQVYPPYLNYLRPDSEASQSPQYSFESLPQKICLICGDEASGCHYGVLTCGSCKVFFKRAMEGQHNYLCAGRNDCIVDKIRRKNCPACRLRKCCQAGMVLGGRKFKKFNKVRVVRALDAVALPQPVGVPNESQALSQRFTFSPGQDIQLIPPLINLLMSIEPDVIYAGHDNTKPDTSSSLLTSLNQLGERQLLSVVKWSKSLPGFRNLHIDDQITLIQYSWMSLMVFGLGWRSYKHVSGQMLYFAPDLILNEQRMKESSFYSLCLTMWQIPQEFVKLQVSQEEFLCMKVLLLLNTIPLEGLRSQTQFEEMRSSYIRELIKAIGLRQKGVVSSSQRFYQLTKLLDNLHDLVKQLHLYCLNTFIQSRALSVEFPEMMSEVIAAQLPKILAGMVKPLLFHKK

Assay [6] has as its target cGMP-inhibited 3',5'-cyclic phosphodiesterase 3A (Homo sapiens, UniProt Q14432). The format is functional.
Assay [7] has as its target Voltage-gated inwardly rectifying potassium channel KCNH2 (Homo sapiens, UniProt Q12809). The format is functional. As to conditions: read-out: AC50.
Assay [8] addresses T4, Muscarinic acetylcholine receptor M2 (Homo sapiens, UniProt P08172).
T4 sequence (P08172 whole entry): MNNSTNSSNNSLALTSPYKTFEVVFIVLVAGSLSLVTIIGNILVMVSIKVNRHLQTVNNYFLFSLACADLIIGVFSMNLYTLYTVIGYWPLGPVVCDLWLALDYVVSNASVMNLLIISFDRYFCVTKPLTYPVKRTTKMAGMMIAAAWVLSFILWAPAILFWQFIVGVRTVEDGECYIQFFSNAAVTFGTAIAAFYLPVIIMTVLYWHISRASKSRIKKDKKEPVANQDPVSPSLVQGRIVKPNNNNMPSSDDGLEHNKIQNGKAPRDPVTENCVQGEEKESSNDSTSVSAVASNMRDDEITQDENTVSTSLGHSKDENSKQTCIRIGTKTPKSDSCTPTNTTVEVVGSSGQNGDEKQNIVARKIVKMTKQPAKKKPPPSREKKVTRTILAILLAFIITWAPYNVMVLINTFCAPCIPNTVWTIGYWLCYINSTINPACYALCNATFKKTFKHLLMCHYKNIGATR
Further: assay procedure not described here.

Sequence of Acetylcholinesterase (P22303 whole entry): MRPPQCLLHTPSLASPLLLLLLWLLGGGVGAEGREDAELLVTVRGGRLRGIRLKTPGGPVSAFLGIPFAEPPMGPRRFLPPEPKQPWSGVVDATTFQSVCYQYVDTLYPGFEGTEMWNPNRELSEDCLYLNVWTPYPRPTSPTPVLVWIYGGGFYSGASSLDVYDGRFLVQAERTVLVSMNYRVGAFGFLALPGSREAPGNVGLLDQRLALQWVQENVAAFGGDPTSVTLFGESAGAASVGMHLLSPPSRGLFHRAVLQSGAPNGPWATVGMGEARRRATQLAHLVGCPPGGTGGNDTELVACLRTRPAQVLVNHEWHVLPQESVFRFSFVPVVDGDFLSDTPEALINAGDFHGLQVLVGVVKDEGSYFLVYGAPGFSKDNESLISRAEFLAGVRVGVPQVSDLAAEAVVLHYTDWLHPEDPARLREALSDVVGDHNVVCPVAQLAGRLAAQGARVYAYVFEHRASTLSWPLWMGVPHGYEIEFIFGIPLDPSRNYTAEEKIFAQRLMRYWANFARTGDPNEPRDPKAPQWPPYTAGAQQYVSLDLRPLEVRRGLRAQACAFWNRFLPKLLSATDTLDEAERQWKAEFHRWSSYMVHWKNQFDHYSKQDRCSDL
Sequence of Voltage-gated inwardly rectifying potassium channel KCNH2 (Q12809 whole entry): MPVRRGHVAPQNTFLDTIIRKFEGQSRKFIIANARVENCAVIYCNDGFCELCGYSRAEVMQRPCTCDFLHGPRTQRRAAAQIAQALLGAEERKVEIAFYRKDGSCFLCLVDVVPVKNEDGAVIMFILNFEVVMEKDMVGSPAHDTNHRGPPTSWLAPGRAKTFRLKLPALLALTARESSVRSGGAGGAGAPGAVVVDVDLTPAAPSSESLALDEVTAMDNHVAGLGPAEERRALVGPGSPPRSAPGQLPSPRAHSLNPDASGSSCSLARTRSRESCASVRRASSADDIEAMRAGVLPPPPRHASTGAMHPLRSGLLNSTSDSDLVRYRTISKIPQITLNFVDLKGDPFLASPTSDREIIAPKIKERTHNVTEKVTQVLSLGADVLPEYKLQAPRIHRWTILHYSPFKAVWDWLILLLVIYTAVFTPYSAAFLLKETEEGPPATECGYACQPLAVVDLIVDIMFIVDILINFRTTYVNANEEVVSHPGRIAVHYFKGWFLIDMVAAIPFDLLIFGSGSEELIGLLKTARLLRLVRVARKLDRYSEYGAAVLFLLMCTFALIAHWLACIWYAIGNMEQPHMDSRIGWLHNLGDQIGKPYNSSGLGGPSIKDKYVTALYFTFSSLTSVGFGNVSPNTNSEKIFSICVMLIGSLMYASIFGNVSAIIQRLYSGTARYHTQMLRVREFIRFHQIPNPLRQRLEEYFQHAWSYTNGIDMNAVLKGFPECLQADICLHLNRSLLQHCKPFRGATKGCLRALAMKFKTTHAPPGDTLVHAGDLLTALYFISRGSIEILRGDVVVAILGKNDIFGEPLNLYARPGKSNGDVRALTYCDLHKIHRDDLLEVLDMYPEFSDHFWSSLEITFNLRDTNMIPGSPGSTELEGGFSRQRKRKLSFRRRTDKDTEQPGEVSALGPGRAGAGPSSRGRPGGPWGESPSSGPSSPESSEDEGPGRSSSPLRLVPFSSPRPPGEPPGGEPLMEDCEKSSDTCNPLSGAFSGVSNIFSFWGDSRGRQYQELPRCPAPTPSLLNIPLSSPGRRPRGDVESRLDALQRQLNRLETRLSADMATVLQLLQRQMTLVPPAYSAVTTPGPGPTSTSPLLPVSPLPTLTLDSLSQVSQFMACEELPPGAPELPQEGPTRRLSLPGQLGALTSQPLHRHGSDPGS
Sequence of Sodium-dependent noradrenaline transporter (P23975 whole entry): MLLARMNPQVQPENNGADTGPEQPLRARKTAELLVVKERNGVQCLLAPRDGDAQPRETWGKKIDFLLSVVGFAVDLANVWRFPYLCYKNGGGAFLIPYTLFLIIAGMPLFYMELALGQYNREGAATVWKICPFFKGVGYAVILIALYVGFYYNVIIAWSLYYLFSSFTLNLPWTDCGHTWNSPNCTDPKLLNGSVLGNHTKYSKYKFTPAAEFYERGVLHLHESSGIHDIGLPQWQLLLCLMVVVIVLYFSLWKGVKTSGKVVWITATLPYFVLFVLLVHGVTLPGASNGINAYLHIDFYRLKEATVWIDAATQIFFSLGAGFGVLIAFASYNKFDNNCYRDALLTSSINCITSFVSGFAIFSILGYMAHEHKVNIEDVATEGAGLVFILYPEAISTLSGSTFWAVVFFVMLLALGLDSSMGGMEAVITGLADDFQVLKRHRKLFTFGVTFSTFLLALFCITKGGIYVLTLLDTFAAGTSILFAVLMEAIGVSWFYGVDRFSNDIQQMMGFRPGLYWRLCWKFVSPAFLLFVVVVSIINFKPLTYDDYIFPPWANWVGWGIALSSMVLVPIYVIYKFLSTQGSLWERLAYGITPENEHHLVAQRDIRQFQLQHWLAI
Sequence of Sodium-dependent serotonin transporter (P31645 whole entry): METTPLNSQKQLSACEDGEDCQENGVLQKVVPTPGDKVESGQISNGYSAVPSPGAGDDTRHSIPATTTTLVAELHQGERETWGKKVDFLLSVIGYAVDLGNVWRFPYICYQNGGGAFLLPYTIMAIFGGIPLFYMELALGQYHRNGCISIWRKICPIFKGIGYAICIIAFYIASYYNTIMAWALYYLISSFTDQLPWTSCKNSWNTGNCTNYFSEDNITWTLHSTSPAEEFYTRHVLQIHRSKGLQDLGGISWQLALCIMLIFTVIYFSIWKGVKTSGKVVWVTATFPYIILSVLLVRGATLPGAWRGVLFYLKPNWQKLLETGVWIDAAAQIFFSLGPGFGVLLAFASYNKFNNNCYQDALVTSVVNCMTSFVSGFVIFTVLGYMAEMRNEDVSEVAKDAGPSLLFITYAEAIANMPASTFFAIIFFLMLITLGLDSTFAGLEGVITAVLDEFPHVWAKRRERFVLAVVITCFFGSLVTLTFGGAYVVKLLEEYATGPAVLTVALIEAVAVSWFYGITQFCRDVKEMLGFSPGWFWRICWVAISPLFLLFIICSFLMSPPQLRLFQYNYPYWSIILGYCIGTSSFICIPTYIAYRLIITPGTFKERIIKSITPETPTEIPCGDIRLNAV
Sequence of Sodium-dependent dopamine transporter (Q01959 whole entry): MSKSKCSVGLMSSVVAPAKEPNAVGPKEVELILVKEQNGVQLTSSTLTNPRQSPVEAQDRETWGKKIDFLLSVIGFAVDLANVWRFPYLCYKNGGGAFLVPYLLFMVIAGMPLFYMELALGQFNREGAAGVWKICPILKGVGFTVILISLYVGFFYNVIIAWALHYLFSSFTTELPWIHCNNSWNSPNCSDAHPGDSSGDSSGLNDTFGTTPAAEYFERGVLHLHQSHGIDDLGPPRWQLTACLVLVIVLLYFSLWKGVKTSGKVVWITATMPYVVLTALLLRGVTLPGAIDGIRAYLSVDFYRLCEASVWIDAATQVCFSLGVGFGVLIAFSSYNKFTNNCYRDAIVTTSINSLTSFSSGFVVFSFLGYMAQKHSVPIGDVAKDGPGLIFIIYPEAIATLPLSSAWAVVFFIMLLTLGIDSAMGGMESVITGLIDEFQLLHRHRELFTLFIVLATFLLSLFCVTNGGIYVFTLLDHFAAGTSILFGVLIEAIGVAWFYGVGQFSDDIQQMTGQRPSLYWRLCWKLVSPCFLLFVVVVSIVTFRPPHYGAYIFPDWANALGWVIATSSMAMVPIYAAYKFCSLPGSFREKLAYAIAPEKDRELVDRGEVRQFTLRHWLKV

On to `C[C@]1(COc2ccc(N3CCC(Oc4ccc(OC(F)(F)F)cc4)CC3)cc2)Cn2cc([N+](=O)[O-])nc2O1`, for which the AC50 (commonly the concentration giving half of the maximal activity seen) in assay [1] is 12.9 µM; at Acetylcholinesterase, > 30 µM; in assay [2], > 30 µM; in [3] it was > 30 µM; in assay [4], > 30 µM; at Thromboxane A2 receptor, > 30 µM. Besides, the concentration at half-maximal activity (AC50) is 2.02 µM in assay [5]; > 30 µM on Progesterone receptor; > 30 µM in [6]; > 30 µM in [7]; > 30 µM in assay [8].

For the compound `CC(C1=C(CCN(C)C)Cc2ccccc21)c1ccccn1` (stereo not given), the AC50 was 11.9 µM in assay [1]; > 30 µM at Acetylcholinesterase; 15.1 µM in assay [2]; > 30 µM in [3]; 19.4 µM in assay [4]; > 30 µM on Thromboxane A2 receptor. Also, the AC50 was 13.7 µM in assay [5]; > 30 µM on Progesterone receptor; > 30 µM in assay [6]; 2.7 µM in assay [7]; 0.0784 µM in [8].

`CC(=O)OC(C)OC(=O)C(C)c1ccc(-c2ccccc2)c(F)c1` (stereo not given): the concentration at half-maximal activity (AC50) in assay [1] was > 30 µM; on Acetylcholinesterase, > 30 µM; in [2] it was > 30 µM; in assay [3], > 30 µM; in assay [4], 0.0212 µM; at Thromboxane A2 receptor, > 30 µM. The concentration at half-maximal activity (AC50) is > 30 µM in [5]; 25.4 µM at Progesterone receptor; > 30 µM in assay [6]; > 30 µM in [7]; > 30 µM in assay [8].

Regarding `C[C@H](N)C(=O)O` [ALANINE], the half-maximal activity concentration (AC50) (in assay [1]; at Acetylcholinesterase; in assay [2]; in [3]; in [4]; at Thromboxane A2 receptor) was > 30 µM each time. For the same compound, the half-maximal activity concentration (AC50) (in assay [5]; at Progesterone receptor; in assay [6]; in assay [7]; in assay [8]) was > 30 µM in each case.

`O=C1c2c(O)cccc2Cc2cccc(O)c21` [ANTHRALIN]: the AC50 was > 3 µM in assay [1]; > 30 µM on Acetylcholinesterase; > 30 µM in assay [2]; > 3 µM in assay [3]; 14 µM in assay [4]; > 30 µM at Thromboxane A2 receptor. The AC50 is > 3 µM in assay [5]; > 30 µM at Progesterone receptor; > 30 µM in assay [6]; > 1 µM in assay [7]; > 3 µM in assay [8].

For `Nc1ccncc1` [DALFAMPRIDINE], the AC50 (in [1]; at Acetylcholinesterase; in assay [2]; in assay [3]; in [4]; on Thromboxane A2 receptor) was > 30 µM each time. Moreover, the concentration at half-maximal activity (AC50) (in assay [5]; on Progesterone receptor; in assay [6]; in assay [8]) was > 30 µM throughout.

As for `CC(N)CCCC(C)(C)O` (stereo not given) [HEPTAMINOL], the AC50 (in assay [1]; at Acetylcholinesterase; in assay [2]; in assay [3]; in [4]; on Thromboxane A2 receptor) was > 30 µM throughout. The AC50 (in assay [5]; at Progesterone receptor; in [6]; in [8]) was > 30 µM throughout.

Take `CC1(C)S[C@@H]2[C@H](NC(=O)[C@H](NC(=O)N3CCN(S(C)(=O)=O)C3=O)c3ccccc3)C(=O)N2[C@H]1C(=O)O` [MEZLOCILLIN]: the concentration at half-maximal activity (AC50) (in assay [1]; on Acetylcholinesterase; in assay [2]; in [3]; in assay [4]; on Thromboxane A2 receptor) was > 30 µM throughout. For the same compound, the AC50 (in assay [5]; on Progesterone receptor; in assay [6]; in assay [8]) was > 30 µM each time.

Regarding `CCC(=O)O[C@@H]1CC(=O)O[C@H](C)C/C=C/C=C/[C@H](OC(C)=O)[C@H](C)C[C@H](CC=O)[C@H](O[C@@H]2O[C@H](C)[C@@H](O[C@H]3C[C@@](C)(OC(C)=O)[C@@H](OC(=O)CC)[C@H](C)O3)[C@H](N(C)C)[C@H]2O)[C@H]1OC` [MIOCAMYCIN], the AC50 (in assay [1]; at Acetylcholinesterase; in [2]; in assay [3]; in assay [4]; at Thromboxane A2 receptor) was > 30 µM throughout. Also, the AC50 (in assay [5]; on Progesterone receptor; in assay [6]; in assay [8]) was > 30 µM throughout.

For the compound `CC(c1ccc(Cl)c(Cl)c1)N1N=C(N)CC1=O` (stereo not given) [MUZOLIMINE], the half-maximal activity concentration (AC50) in assay [1] is > 30 µM; on Acetylcholinesterase, > 30 µM; in assay [2], > 30 µM; in assay [3] it was > 30 µM; in assay [4], 13.3 µM; on Thromboxane A2 receptor it was > 30 µM. The AC50 (in assay [5]; on Progesterone receptor; in assay [6]; in [8]) was > 30 µM throughout.

With `c1cc(CN2CCCNCCNCCCNCC2)ccc1CN1CCCNCCNCCCNCC1` [PLERIXAFOR], the concentration at half-maximal activity (AC50) (in assay [1]; at Acetylcholinesterase; in assay [2]; in assay [3]; in assay [4]; at Thromboxane A2 receptor) was > 30 µM each time. For the same compound, the concentration at half-maximal activity (AC50) (in assay [5]; at Progesterone receptor; in assay [6]; in assay [8]) was > 30 µM each time.

With `O=C(NC(Cc1cc(=O)[nH]c2ccccc12)C(=O)O)c1ccc(Cl)cc1` (stereo not given) [REBAMIPIDE], the AC50 (in assay [1]; at Acetylcholinesterase; in assay [2]; in assay [3]; in assay [4]; at Thromboxane A2 receptor) was > 30 µM each time. Also, the concentration at half-maximal activity (AC50) (in assay [5]; on Progesterone receptor; in assay [6]; in [8]) was > 30 µM in each case.
